From patent US10285994B2, “Method of preventing or treating osteoporosis by neddylation inhibitor” (Chang Gung University, priority 2017, dated 2019)

Experiments:
cathepsin K = experiment: Cathepsin K activity fluorometric assay, BMMs; assay type: cell-based, mouse; details: FIG. 1C
Protocol: (§1) FIGS. 1A-1D are data collected from primary mouse bone marrow-derived macrophages (BMMs) respectively incubated in the medium containing the soluble recombinant RANKL (sRANKL, 50 ng/ml), macrophage colony-stimulating factor (M-CSF, 40 ng/ml) and specified concentrations of MLN4924 for 7 days according to example 1.1 of the present disclosure. FIG. 1A: the photographs of TRAP staining depicting the differentiation of osteoclasts from BMMs. FIG. 1B: after the differentiation of osteoclasts in Corning Osteo Surface (a synthetic 3-dimensional structure that mimics in vivo bone for in vitro bone cell assays), the cells were removed, and the resorbed areas for confirming osteoclast activity were analyzed by 1% toluidine blue staining. FIG. 1C: the culture medium is subject to Biovision Cathepsin K Activity Fluorometric Assay Kit for the analysis of cathepsin K activity. FIG. 1D: the effect of effective doses of MLN4924 on the viability of BMMs is evaluated by MTT assay. Scale bar represents 100 μm. Data are expressed as mean±SD where *p<0.05; **p<0.01.
The pre-osteoclasts and RAW264.7 cells were seeded into Corning Osteo Surface Assay 96-wells plate (Corning, Kennebunk, Me.). Twenty-four hours later, the cells were treated with sRANKL (50 ng/ml) and specified concentrations of MLN4924 for 7 days. […]

[1] = test system: primary mouse bone marrow-derived macrophages (BMMs); experiment: Viability of BMMs (WST / MTT assay); assay type: cell-based; details: doses that inhibit osteoclast differentiation, FIG. 1D
Protocol: as §1, with “**p<0.01. Next, the WST assay was used to determine whether the suppressed osteoclastogenesis by MLN4924 was caused by cytotoxicity.” for “**p<0.01.”

JNK (pJNK) = experiment: Western blot, sRANKL-induced JNK phosphorylation in RAW264.7 cells; assay type: cell-based, mouse; details: RAW264.7, 30 min pre-treatment, sRANKL 50 ng/ml, FIG. 3A-3B
Protocol: FIGS. 3A-3D are data collected from Western blot analysis that respectively depict the expression of specified protein extracted from the RAW264.7 cells, which are pre-treated with specified concentrations of MLN4924 for 30 minutes followed by the stimulation of sRANKL (50 ng/ml) according to example 2 of the present disclosure. FIG. 3A: the time course effect of MLN4924 on the phosphorylations of ERK (pERK), P38 (pP38) and JNK (pJNK). FIG. 3B: the dose effect of MLN4924 on the phosphorylations of ERK (pERK), P38 (pP38) and JNK (pJNK). FIG. 3C: the time course effect of MLN4924 on the expression of NFATc-1. FIG. 3D: the dose effect of MLN4924 on the expression of NFATc-1. Mock: untreated control; R: sRANKL; M: MLN4924.
The RAW264.7 cells were starved with serum-free medium for six hours and then treated with the specified treatments. At indicated time points, the cells were washed with cold phosphate-buffered saline (PBS) and lysed in RIPA buffer containing complete protease inhibitor cocktail (Roche). The cell lysates were separated by SDS-PAGE followed by Western blotting with the indicated antibodies, including NEDD8, APPBP1, UBA3.
Specifically, the inhibitory effect increased with an increase in the MLN4924 concentration (FIG. 3B).

[2] = test system: ovariectomized (OVX) mice; experiment: Three-point bending test of femurs of OVX + sRANKL mice; assay type: in vivo, mouse; details: 10 mg/kg i.p. once daily for 2 weeks
From the text: FIGS. 7A-7D are histograms respectively depicting the mechanical properties of femurs in control, OVX, OVX+RANKL, and OVX+RANKL+MLN4924 groups according to example 5.2 of the present disclosure, including modulus (FIG. 7A), strain at break (FIG. 7B), stress at yield (FIG. 7C), and load at break (FIG. 7D). Values are expressed as mean±SD, N=6 per group. *p<0.05; **p<0.01.
All experimental procedures were approved by the Institutional Animal Care and Use Committee of the Chang Gung Memorial Hospital at Chiayi and complied with the Guideline for the Care and Use of Laboratory Animals available through the National Academy of Sciences (IACUC number: 2013100102 and 2015103001). All efforts were made to minimize the suffering of the animals. C57BL/6J female mice (6-8 weeks old; obtained from BioLasco in Taiwan) were operated ovariectomy surgery (OVX). 48 hours later of OVX operation, sRANKL (1 mg/kg) or saline was injected intraperitoneally once daily for two days followed by intraperitoneal injection of MLN4924 (10 mg/kg) once daily for 2 weeks. Mice were sacrificed with CO2 asphyxiation, and the tibias and femurs were isolated therefrom. The tibias were subject to histochemistry assay, and the femurs were subject to bending test and tomographic analysis by MTS (Testresources, Shakopee, Minn.) and Skyscan 1272 (Bruker, Kontich, Belgium), respectively. Serum levels of cross linked C-telopeptide of type I collagen (CTX-1) (CEA665Mu) was measured by specific ELISA kit (USCN life science incorporation, Wuhan, Hubei, China).
The femurs were tested to failure by three-point bending on an MTS Synergie 200 (Testresources, Shakopee, Minn.). The speed of load application was set as 1 mm/min with preload of 1N, load cell of 500N, settling time of 30 seconds and distance between the points of 10 mm. Force-displacement data were plotted from the structural properties, including modulus, load at break, stress at yield and strain at yield.
Bone loss results in bone fragile, thus rendering bone being easier to break. In this example, mice were first treated with OVX or OVX+sRANKL to cause bone loss, and then MLN4924 was administered. The femurs of mice were then subject to shaft fracture testing by three-point bending so as to evaluate the biomechanical properties thereof.

Structure (SMILES): NS(=O)(=O)OC[C@@H]1C[C@@H](n2ccc3c(N[C@H]4CCc5ccccc54)ncnc32)C[C@@H]1O [MLN4924, (1S,2S,4R)-4-(4-((1S)-2,3-Dihydro-1H-inden-1-ylamino)-7H-pyrrolo(2,3-d)pyrimidin-7-yl)-2-hydroxycyclopentyl) methyl sulphamate]
- basal activity of cathepsin K (cathepsin K; MLN4924 alone without sRANKL): did not affect the basal activity of cathepsin K in macrophages
- activity of cathepsin K versus sRANKL group (cathepsin K; with sRANKL): significantly reduced the activity of cathepsin K
- cytotoxicity / viability of BMMs [1]: no cytotoxic effects at doses that effectively inhibited osteoclast differentiation
- sRANKL-upregulated phosphorylation of JNK (pJNK) (JNK (pJNK)): inhibited
- femur modulus ([2]; FIG. 7A): prevented the levels of these parameters from dropping
- femur strain at break ([2]; FIG. 7B): prevented the levels of these parameters from dropping
- femur stress at yield ([2]; FIG. 7C): prevented the levels of these parameters from dropping
- femur load at break ([2]; FIG. 7D): prevented the levels of these parameters from dropping
